Experimental findings from ChEMBL document CHEMBL1123600, “N6-(2,2-diphenylethyl)adenosine, a novel adenosine receptor agonist with antipsychotic-like activity” (J Med Chem, 1987) are described below.

The subject of experiment [1] is Mus musculus. Kind of experiment: Effect on Ataxia in mouse following i.p. administration. The experiment is classed as functional. Conditions: ip.
For experiment [2], the system named is Mus musculus. Nature of the experiment: Effect on Motor activity in mouse following i.p. administration. The format is functional. Conditions: ip.
The next experiment concerns the target T1, Adenosine receptor A1 (Rattus norvegicus, UniProt P25099).
T1 sequence (P25099 whole entry): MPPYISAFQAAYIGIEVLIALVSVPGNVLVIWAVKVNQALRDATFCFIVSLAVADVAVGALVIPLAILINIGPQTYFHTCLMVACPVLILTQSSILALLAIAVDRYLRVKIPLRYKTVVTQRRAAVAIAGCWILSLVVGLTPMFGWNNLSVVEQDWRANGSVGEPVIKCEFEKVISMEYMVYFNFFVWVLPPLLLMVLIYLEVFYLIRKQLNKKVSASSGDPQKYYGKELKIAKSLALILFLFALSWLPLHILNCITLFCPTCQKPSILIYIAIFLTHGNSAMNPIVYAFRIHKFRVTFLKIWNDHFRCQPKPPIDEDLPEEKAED

Experiment [3] relates to Rattus norvegicus. Nature of the experiment: Effect on Ataxia(ATX) in rat was measured as ED50 by perorally administration of compound. The experiment is classed as functional. Conditions: po.
For experiment [4], the system named is Rattus norvegicus. Nature of the experiment: Effect on Motor activity(MA) in rat was measured as ED50 by perorally administration of compound. Conditions: po. The format is functional.
The species named for experiment [5] is Rattus norvegicus. Nature of the experiment: Effect on Sidman conditioned avoidance in rat. The experiment is classed as functional.
The target of the next experiment is Adenosine A2 receptor (Rattus norvegicus, UniProt P29276+P30543).

Structures are written as SMILES. Some results are limits rather than exact numbers.

Description for Adenosine A2 receptor: Binding affinity to A2 adenosine receptor in rat striatal membranes by [3H]NECA (1-(6-amino-9H-purin-9-yl)-1-deoxy-N-ethyl-beta-D-ribofuranuronamide) displacement.
Description for Adenosine receptor A1: Binding affinity to adenosine A1 receptor in rat whole brain membranes by [3H]N6-cyclohexyladenosine displacement.

In general, ED50 refers to the dose at which the effect has come halfway, by size or by number of responders. The low end stands for greater potency, the high end for weaker potency. For orientation: Ki means a dissociation constant, usually derived from enzyme kinetics or from competition with a known ligand. For `OC[C@H]1O[C@@H](n2cnc3c(NCCc4ccccc4)ncnc32)[C@H](O)[C@@H]1O`, the ED50 with Mus musculus [1] is over 100 mg/kg; in the experiment on Mus musculus [2], 15 mg/kg. In addition, the affinity on Adenosine receptor A1, expressed as Ki, was 12.7 nM.

With `OC[C@H]1O[C@@H](n2cnc3c(NCC(c4ccccc4)c4ccccc4)ncnc32)[C@H](O)[C@@H]1O`, the ED50 was determined as 145 mg/kg with Mus musculus [1]; 1.3 mg/kg in the experiment on Mus musculus [2]; 31 mg/kg in the experiment with Rattus norvegicus [3]; 2.2 mg/kg in the experiment with Rattus norvegicus [4]; 2.5 mg/kg in the experiment listed under Rattus norvegicus [5]. In addition, the Ki at Adenosine receptor A1 turned out to be 6.8 nM; at Adenosine A2 receptor it was 25 nM.

With `OC[C@H]1O[C@@H](n2cnc3c(NCCCCc4ccccc4)ncnc32)[C@H](O)[C@@H]1O`, the ED50 with Mus musculus [1] is over 100 mg/kg; in the experiment on Mus musculus [2] it was 32 mg/kg. Further, the Ki at Adenosine receptor A1 turned out to be 15.9 nM; at Adenosine A2 receptor, 1230 nM.

In the case of `OC[C@H]1O[C@@H](n2cnc3c(NCCCc4ccccc4)ncnc32)[C@H](O)[C@@H]1O`, the figures for the median effective dose (ED50) in the experiment on Mus musculus [1] and with Mus musculus [2] were over 100 mg/kg and 19 mg/kg, respectively. Moreover, the values for the Ki on Adenosine receptor A1 and at Adenosine A2 receptor were 23 nM and 420 nM, respectively.

In the case of `OC[C@H]1OC(n2cnc3c(NCCCCC(c4ccccc4)c4ccccc4)ncnc32)[C@H](O)[C@@H]1O` (stereo partly specified), the ED50 was over 100 mg/kg with Mus musculus [1] and 30 mg/kg in the experiment on Mus musculus [2]. Moreover, the Ki on Adenosine receptor A1 came to 146 nM; on Adenosine A2 receptor, 2200 nM.

For `CC(C)(CNc1ncnc2c1ncn2C1O[C@H](CO)[C@@H](O)[C@H]1O)c1ccccc1` (stereo partly specified), the values for the ED50 in the experiment on Mus musculus [1] and in the experiment with Mus musculus [2] were 30 mg/kg and 6.7 mg/kg, respectively. The Ki stood at 16.2 nM on Adenosine receptor A1 and 320 nM at Adenosine A2 receptor.

For `OC[C@H]1OC(n2cnc3c(NCC(c4ccccc4)(c4ccccc4)c4ccccc4)ncnc32)[C@H](O)[C@@H]1O` (stereo partly specified), the ED50 is over 100 mg/kg in the experiment on Mus musculus [1] and 80 mg/kg with Mus musculus [2]. In addition, the Ki amounted to 14300 nM on Adenosine receptor A1 and 26000 nM on Adenosine A2 receptor.

As for `OC[C@H]1OC(n2cnc3c(NC(c4ccccc4)c4ccccc4)ncnc32)[C@H](O)[C@@H]1O` (stereo partly specified), the values for the ED50 with Mus musculus [1] and with Mus musculus [2] were over 100 mg/kg and 80 mg/kg, respectively. The Ki at Adenosine receptor A1 was 480 nM; on Adenosine A2 receptor it was 3800 nM.

In the case of `OC[C@H]1OC(n2cnc3c(NCCC(c4ccccc4)c4ccccc4)ncnc32)[C@H](O)[C@@H]1O` (stereo partly specified), the ED50 was over 100 mg/kg with Mus musculus [1] and 33 mg/kg with Mus musculus [2]. In addition, the Ki at Adenosine receptor A1 amounted to 79 nM; on Adenosine A2 receptor, 290 nM.

`CC(CNc1ncnc2c1ncn2C1O[C@H](CO)[C@@H](O)[C@H]1O)(c1ccccc1)c1ccccc1` (stereo partly specified): the ED50 in the experiment with Mus musculus [1] is over 100 mg/kg; in the experiment on Mus musculus [2] it was 7 mg/kg. The Ki on Adenosine receptor A1 came out at 37 nM; on Adenosine A2 receptor, 30 nM.

As for `OC[C@H]1OC(n2cnc3c(NCCCC(c4ccccc4)c4ccccc4)ncnc32)[C@H](O)[C@@H]1O` (stereo partly specified), the results for the ED50 with Mus musculus [1] and in the experiment on Mus musculus [2] were over 100 mg/kg and 32 mg/kg, respectively. In addition, the Ki is 290 nM at Adenosine receptor A1 and 4700 nM on Adenosine A2 receptor.

Regarding `CC(CNc1ncnc2c1ncn2[C@@H]1O[C@H](CO)[C@@H](O)[C@H]1O)c1ccccc1` (mixture of isomers), the figures for the 50% effective dose (ED50) with Mus musculus [1] and with Mus musculus [2] were 7 mg/kg and 0.5 mg/kg, respectively. For the same molecule, the values for the Ki on Adenosine receptor A1 and at Adenosine A2 receptor were 2.4 nM and 98 nM, respectively.

In the case of `C[C@@H](Cc1ccccc1)Nc1ncnc2c1ncn2[C@@H]1OC(CO)[C@@H](O)[C@H]1O` (single isomer, unassigned), the 50% effective dose (ED50) in the experiment with Mus musculus [1] stood at 75 mg/kg; in the experiment on Mus musculus [2], 16 mg/kg.

Take `C[C@H](Cc1ccccc1)Nc1ncnc2c1ncn2[C@@H]1O[C@H](CO)[C@@H](O)[C@H]1O` [(R)-PIA]: the ED50 was determined as 2 mg/kg in the experiment with Mus musculus [1] and 0.8 mg/kg in the experiment on Mus musculus [2].

Take `O=C(CCCN1CCC(O)(c2ccc(Cl)cc2)CC1)c1ccc(F)cc1` [HALOPERIDOL]: the ED50 is 12 mg/kg in the experiment on Mus musculus [1]; 0.27 mg/kg with Mus musculus [2]; over 1 mg/kg in the experiment with Rattus norvegicus [3]; 0.24 mg/kg with Rattus norvegicus [4]; 0.3 mg/kg in the experiment filed under Rattus norvegicus [5].

For `OC[C@H]1O[C@@H](n2cnc3c(NCc4ccccc4)ncnc32)[C@H](O)[C@@H]1O` [N6-BENZYLADENOSINE], the figures for the ED50 with Mus musculus [1] and with Mus musculus [2] were over 100 mg/kg and 22 mg/kg, respectively. This molecule had a Ki on Adenosine A2 receptor of 280 nM.

Turning to `OC[C@H]1O[C@@H](n2cnc3c(Nc4ccccc4)ncnc32)[C@H](O)[C@@H]1O` [N6-PHENYLADENOSINE], the ED50 is 30 mg/kg in the experiment on Mus musculus [1] and 25 mg/kg in the experiment with Mus musculus [2]. Also, the Ki on Adenosine receptor A1 turned out to be 4.6 nM; at Adenosine A2 receptor, 660 nM.

On to `CSc1ccc2c(c1)N(CCC1CCCCN1C)c1ccccc1S2` (stereo unspecified) [THIORIDAZINE], for which the ED50 in the experiment with Mus musculus [1] is 13 mg/kg; in the experiment with Mus musculus [2], 3.3 mg/kg; with Rattus norvegicus [3] it was over 30 mg/kg; with Rattus norvegicus [4] it was 13.3 mg/kg; in the experiment filed under Rattus norvegicus [5], 19.7 mg/kg.
